Laboratory results from patent US20130203817A1, “Novel Inhibitors of LYN Kinase” (VASSA INFORMATICS, priority 2012, published 2013).

Columns and labels:
[1] = test system: mesenchymal breast cancer lines; details: at concentrations that inhibit LYN kinase activity; cited from earlier work
[2] = test system: phosphorylated (activated) LYN; details: BT549 cells, Western blot; cited from earlier work
[3] = target: Lyn(h) (Homo sapiens, UniProt P07948); assay: Millipore kinase profiling, Lyn; assay type: biochemical; details: VI201 at 100 μM
Sequence of Lyn(h) (P07948 1-491 isoform P07948-2): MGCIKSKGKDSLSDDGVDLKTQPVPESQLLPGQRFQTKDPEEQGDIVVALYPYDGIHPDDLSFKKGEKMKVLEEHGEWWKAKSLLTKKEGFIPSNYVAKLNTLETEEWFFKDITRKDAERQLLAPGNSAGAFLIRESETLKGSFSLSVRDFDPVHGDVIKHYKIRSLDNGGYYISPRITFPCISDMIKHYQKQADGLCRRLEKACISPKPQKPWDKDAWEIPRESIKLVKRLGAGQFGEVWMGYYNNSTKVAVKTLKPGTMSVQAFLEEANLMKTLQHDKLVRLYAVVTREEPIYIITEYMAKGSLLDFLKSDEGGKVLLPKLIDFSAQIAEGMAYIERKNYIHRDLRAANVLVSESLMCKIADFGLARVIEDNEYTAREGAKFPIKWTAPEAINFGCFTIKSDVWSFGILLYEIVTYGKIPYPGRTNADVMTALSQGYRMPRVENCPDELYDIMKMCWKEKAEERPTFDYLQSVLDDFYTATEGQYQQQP
Experimental: (§1) The three compounds identified in Example 1 were tested for kinase activity at Millipore (Dundee UK). The compounds were shipped as 10 mM stocks in DMSO as per Millipore testing standards. The testing consisted of two initial phases:
(§2) (a) Profiling against a set of approximately 60 kinases, selected as representative of all kinases and current kinase drug targets, to determine the selectivity of the compounds; and, (b) IC50 testing against EGFR, the kinase target of the initial search template molecule.
(§3) In particular, compound VI201 inhibited three kinases, in one case restricting the activity to about 20% at 100 μM concentration (Table 1).

[4] = target: Pim-1(h) (Homo sapiens, UniProt P11309); assay: Millipore kinase profiling, Pim-1; assay type: biochemical; details: VI201 at 100 μM
Sequence of Pim-1(h) (P11309 whole entry): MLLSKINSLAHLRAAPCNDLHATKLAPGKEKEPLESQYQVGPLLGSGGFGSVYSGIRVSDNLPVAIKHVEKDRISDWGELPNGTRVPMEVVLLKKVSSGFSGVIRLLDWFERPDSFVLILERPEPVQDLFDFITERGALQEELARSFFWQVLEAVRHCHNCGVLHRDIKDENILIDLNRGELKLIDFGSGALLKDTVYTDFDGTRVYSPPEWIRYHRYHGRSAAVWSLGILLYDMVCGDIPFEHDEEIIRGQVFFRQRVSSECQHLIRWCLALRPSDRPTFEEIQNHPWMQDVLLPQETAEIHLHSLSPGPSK
Experimental: as §1, §2, §3

[5] = target: WNK3(h) (Homo sapiens, UniProt Q9BYP7); assay: Millipore kinase profiling, WNK3; assay type: biochemical; details: VI201 at 100 μM
Sequence of WNK3(h) (Q9BYP7 whole entry): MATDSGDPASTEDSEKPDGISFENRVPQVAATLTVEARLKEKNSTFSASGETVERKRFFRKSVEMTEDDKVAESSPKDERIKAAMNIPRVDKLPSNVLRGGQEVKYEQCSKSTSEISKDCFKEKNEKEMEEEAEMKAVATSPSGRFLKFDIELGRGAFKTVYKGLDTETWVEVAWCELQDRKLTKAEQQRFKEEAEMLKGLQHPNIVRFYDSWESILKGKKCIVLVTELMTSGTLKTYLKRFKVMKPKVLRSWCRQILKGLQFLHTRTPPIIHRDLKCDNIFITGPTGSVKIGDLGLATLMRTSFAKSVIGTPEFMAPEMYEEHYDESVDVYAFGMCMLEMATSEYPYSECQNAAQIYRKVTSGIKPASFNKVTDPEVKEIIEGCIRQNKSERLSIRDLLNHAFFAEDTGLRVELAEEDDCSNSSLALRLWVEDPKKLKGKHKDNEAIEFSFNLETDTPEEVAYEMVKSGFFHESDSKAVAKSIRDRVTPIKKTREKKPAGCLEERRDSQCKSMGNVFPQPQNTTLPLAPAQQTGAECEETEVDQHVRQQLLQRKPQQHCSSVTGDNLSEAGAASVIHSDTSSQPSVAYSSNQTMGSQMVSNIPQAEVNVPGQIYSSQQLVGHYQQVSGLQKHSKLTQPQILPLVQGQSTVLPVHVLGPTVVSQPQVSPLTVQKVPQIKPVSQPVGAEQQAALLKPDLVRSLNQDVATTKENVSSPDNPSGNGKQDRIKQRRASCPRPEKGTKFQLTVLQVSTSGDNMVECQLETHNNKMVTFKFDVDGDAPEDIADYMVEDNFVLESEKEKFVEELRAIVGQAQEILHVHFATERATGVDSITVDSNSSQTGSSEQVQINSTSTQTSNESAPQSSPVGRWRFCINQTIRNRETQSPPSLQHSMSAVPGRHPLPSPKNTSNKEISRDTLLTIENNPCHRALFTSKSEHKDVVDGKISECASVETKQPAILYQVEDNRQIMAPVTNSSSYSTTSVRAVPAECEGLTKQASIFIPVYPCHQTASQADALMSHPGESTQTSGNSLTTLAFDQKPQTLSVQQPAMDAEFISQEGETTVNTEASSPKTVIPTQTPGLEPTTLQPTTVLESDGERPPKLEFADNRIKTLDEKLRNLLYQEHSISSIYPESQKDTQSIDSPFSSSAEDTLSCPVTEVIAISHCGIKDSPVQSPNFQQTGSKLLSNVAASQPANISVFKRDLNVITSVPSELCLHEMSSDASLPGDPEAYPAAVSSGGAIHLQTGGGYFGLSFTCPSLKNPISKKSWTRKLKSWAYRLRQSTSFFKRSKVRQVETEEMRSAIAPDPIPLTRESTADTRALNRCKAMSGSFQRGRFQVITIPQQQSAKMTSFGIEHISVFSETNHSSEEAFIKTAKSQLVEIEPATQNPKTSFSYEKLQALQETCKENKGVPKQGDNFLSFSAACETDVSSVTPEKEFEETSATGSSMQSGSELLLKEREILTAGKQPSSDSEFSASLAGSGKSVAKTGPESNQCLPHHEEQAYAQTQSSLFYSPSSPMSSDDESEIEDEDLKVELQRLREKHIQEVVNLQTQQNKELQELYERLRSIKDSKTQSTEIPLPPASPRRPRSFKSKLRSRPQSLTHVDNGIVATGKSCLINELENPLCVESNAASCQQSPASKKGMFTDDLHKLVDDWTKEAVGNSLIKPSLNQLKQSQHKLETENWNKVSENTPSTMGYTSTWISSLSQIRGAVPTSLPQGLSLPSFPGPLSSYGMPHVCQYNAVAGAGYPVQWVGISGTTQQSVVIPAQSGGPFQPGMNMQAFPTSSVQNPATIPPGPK
Experimental: as §1, §2, §3

[6] = target: GSK3β kinase (Homo sapiens, UniProt P49841); assay: Kinase profiling, GSK3β; assay type: biochemical; details: VI201 at 100 μM
Sequence of GSK3β kinase (P49841 whole entry): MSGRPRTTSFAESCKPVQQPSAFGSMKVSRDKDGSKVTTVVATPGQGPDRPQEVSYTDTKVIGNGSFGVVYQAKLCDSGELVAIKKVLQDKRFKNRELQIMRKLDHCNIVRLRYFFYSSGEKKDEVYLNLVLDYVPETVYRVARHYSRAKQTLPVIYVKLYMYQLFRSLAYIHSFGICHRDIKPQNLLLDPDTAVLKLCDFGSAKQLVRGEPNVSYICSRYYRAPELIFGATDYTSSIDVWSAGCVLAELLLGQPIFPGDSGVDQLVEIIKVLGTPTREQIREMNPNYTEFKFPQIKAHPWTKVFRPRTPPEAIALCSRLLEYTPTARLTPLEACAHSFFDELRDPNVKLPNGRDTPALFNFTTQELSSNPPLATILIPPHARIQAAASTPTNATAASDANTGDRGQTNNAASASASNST
Experimental: as §1, §2

[7] = target: Abl kinase (BCR-Abl) (Homo sapiens, UniProt P00519); assay: Kinase profiling, Abl; assay type: biochemical; details: VI201 at 100 μM
Sequence of Abl kinase (BCR-Abl) (P00519 27-1130 limits assumed): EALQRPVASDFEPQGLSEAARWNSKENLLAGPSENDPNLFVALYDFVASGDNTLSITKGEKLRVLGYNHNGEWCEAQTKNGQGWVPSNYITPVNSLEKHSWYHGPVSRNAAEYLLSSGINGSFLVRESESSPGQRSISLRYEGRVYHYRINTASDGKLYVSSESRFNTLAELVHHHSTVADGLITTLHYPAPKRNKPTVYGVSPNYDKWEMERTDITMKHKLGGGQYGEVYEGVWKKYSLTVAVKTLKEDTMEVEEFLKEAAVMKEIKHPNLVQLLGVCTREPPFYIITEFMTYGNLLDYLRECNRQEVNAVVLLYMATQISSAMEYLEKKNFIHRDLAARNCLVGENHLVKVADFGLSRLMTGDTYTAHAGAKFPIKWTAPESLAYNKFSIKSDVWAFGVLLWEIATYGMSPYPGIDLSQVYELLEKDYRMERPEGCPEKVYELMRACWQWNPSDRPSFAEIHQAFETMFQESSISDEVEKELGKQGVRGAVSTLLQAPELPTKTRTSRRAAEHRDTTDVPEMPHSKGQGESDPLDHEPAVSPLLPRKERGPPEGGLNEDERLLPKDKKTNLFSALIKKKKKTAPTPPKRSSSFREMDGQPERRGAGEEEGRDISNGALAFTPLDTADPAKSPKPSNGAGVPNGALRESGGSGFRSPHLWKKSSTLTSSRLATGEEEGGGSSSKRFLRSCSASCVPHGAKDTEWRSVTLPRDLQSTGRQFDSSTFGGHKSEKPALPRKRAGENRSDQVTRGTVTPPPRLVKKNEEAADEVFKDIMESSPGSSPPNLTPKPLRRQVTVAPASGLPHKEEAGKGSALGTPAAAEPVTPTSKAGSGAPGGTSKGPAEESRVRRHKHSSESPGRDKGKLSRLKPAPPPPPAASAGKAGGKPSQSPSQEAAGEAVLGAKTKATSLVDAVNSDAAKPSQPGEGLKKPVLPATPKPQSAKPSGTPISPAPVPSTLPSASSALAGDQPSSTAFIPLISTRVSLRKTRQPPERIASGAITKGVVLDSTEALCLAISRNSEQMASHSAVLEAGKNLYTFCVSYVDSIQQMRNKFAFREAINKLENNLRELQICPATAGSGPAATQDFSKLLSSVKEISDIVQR
Experimental: as §1, §2

Row | Compound | cell invasion [1] | cell proliferation [1] | phosphorylated (activated) LYN [2] | inhibition of LYN kinase [3] [%] | inhibition of Pim-1 kinase [4] [%] | inhibition of WNK3 kinase [5] [%] | inhibition of GSK3β kinase [6] [%] | inhibition of Abl kinase (BCR-Abl) [7] [%]
1 | Cc1nc(Nc2ncc(C(=O)Nc3c(C)cccc3Cl)s2)cc(N2CCN(CCO)CC2)n1 [Dasatinib, N-(2-chloro-6-methylphenyl)-2-[[6-[4-(2-hydroxyethyl)-1-piperazinyl]-2-methyl-4-pyrimidinyl]amino]-5-thiazole carboxamide] | blocked invasion | not proliferation | decreased phosphorylated (activated) LYN |  |  |  |  | 
2 | N-(2,3-dimethylphenyl)-3-(3-(pyridin-2-yl)-1,2,4-thiadiazol-5-yl)propanamide [VI201] |  |  |  | 82 | 44 | 37 | 26 | 5
